Experimental findings from patent US20250320213A1, “Nitrogen-Containing Heterocyclic Compounds” (Pfizer Inc., priority 2024, published 2025) are described below.

Assay [1] relates to CCL17 secretion in peripheral human whole blood. In words: Human Whole Blood (HWB) CCL17 TR-FRET Assay (IL-13 stimulated CCL17 secretion). To be noted: inhibition of CCL17 secretion in human whole blood, 10 ng/mL IL13, 48 hours. Type of assay: cell-based. In a few lines:
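Heparinized human whole blood was preincubated with compound (11-point, 3-fold series) for 2 h at 37°C, then stimulated with IL-13 (10 ng/mL final) for 48 h. Serum CCL17 was measured by TR-FRET sandwich immunoassay (665/615 nm ratio) after 16 h at room temperature, giving IC50.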
(In TR-FRET formats the signal depends on donor and acceptor labels being close together.)

The target in another assay is T1, STAT6 (Homo sapiens, UniProt P42226).
T1 construct: stably transfected HaCaT keratinocyte cell line, which expresses NanoLuc luciferase reporter gene under the transcriptional control of the STAT6 responsive promoter; endogenous in cells; host or cells: HaCaT keratinocyte reporter cell line (stably transfected with a NanoLuc reporter)
T1 sequence (P42226 1-847): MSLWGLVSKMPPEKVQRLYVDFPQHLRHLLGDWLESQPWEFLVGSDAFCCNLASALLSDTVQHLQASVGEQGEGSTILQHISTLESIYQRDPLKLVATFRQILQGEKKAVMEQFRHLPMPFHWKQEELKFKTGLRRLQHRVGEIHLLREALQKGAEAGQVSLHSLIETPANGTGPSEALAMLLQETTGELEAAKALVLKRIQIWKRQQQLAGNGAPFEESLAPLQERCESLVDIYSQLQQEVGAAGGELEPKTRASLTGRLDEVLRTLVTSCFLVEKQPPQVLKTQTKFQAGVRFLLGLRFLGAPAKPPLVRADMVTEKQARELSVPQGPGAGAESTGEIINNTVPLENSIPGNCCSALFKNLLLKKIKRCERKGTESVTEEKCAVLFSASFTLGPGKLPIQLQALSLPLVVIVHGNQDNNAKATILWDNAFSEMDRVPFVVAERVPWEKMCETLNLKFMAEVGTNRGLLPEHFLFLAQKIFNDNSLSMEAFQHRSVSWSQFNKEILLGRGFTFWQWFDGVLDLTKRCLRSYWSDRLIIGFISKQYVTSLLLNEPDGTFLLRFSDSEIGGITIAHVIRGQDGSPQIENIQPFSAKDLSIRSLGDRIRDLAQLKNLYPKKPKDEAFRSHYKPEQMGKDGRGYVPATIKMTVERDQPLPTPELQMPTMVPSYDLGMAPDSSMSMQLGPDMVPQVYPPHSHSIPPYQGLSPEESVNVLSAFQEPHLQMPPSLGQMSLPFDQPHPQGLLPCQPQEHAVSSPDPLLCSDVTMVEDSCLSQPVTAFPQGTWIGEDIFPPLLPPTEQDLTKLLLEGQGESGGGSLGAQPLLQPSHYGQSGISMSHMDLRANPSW
In words: STAT6 Reporter Luciferase Assay (IL-13 stimulated HaCaT keratinocyte NanoLuc reporter cells). Type of assay: cell-based. To be noted: STAT6 NanoLuc luciferase reporter, IL-13 stimulated HaCaT keratinocyte cells; read-out: Reporter EC50. In a few lines: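 HaCaT IL-13Ra2-promoter NanoLuc reporter; cpd 2 h 37 °C in DMEM/2% HI FBS; IL-13 0.12 nM final, 4 h; Nano-Glo luminescence.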
Background: A reporter such as luciferase makes a cellular process visible.

The IC50 is the point on the concentration scale where inhibition reaches its midpoint. The low end stands for greater potency in that assay, the high end for weaker potency in that assay. The EC50 is the concentration at which the effect is half-maximal. In assay [1] (Homo sapiens, 48 h), `CN(C)C(=O)Nc1ccc(CNC(=O)c2nn(C34CC(C3)C4)c3c2CN(c2ccc(C(=O)N(C)C)cn2)CC3)cc1` [Example 104, 1-(bicyclo[1.1.1]pentan-1-yl)-5-(5-(dimethylcarbamoyl)pyridin-2-yl)-N-(4-(3,3-dimethylureido)benzyl)-4,5,6,7-tetrahydro-1H-pyrazolo[4,3-c]pyridine-3-carboxamide] gave an IC50 of 0.107 µM. In addition, on STAT6, the EC50 was 0.007 µM.
For `CN(C)C(=O)Nc1ccc(CNC(=O)c2nn(C)c3c2CN(c2ccc(C(=O)N(C)C)cn2)CC3(C)C)cc1` [Example 105, 5-(5-(dimethylcarbamoyl)pyridin-2-yl)-N-(4-(3,3-dimethylureido)benzyl)-1,7,7-trimethyl-4,5,6,7-tetrahydro-1H-pyrazolo[4,3-c]pyridine-3-carboxamide], in that order: 0.021 µM and 0.003 µM.
`CN(C)C(=O)Nc1ccc(CNC(=O)c2nn(C)c3c2CN(c2ccc(C(=O)N(C)C)cn2)CC32CC2)cc1` [Example 106, 5′-(5-(dimethylcarbamoyl)pyridin-2-yl)-N-(4-(3,3-dimethylureido)benzyl)-1′-methyl-1′,4′,5′,6′-tetrahydrospiro[cyclopropane-1,7′-pyrazolo[4,3-c]pyridine]-3′-carboxamide]: in assay [1] (Homo sapiens, 48 h), the IC50 came out at 0.049 µM. On STAT6, the EC50 stood at 0.008 µM.
For `CC(C)n1nc(C(=O)NCc2ccc(NC(=O)N(C)C)cc2)c2c1CCN(c1ccc(N3CCOC3=O)cn1)C2` [Example 107, N-(4-(3,3-dimethylureido)benzyl)-1-isopropyl-5-(5-(2-oxooxazolidin-3-yl)pyridin-2-yl)-4,5,6,7-tetrahydro-1H-pyrazolo[4,3-c]pyridine-3-carboxamide] the same measures were 0.219 µM and 0.013 µM.
For `CC(C)n1nc(C(=O)NCc2ccc(NC(=O)N(C)C)cc2)c2c1CCN(c1ccc(-n3ccccc3=O)cn1)C2` [Example 108, N-(4-(3,3-dimethylureido)benzyl)-1-isopropyl-5-(2-oxo-2H-[1,3′-bipyridin]-6′-yl)-4,5,6,7-tetrahydro-1H-pyrazolo[4,3-c]pyridine-3-carboxamide] the same measures were 0.536 µM and 0.03 µM.
For `CC(C)n1nc(C(=O)NCc2ccc(NC(=O)N(C)C)cc2)c2c1CCN(c1ccc(N3C(=O)C4CCC3C4)cn1)C2` (centres unmarked) [Example 109, N-(4-(3,3-dimethylureido)benzyl)-1-isopropyl-5-(5-(3-oxo-2-azabicyclo[2.2.1]heptan-2-yl)pyridin-2-yl)-4,5,6,7-tetrahydro-1H-pyrazolo[4,3-c]pyridine-3-carboxamide], in that order: over 30 µM and 0.117 µM.
Compound `CC(C)n1nc(C(=O)NCc2ccc(NC(=O)N(C)C)cc2)c2c1CCN(c1ccc(N3C(=O)OCC3CO)cn1)C2` (centres unmarked) [Example 110, N-(4-(3,3-dimethylureido)benzyl)-5-(5-(4-(hydroxymethyl)-2-oxooxazolidin-3-yl)pyridin-2-yl)-1-isopropyl-4,5,6,7-tetrahydro-1H-pyrazolo[4,3-c]pyridine-3-carboxamide] had an IC50 in assay [1] (Homo sapiens, 48 h) of 2.09 µM. Moreover, the EC50 on STAT6 came out at 0.523 µM.
`CC(C)n1nc(C(=O)NCc2ccc(NC(=O)N(C)C)cc2)c2c1C[C@@H](C)N(c1ccc(C(=O)N(C)C)cn1)C2` [Example 114, (R)-5-(5-(dimethylcarbamoyl)pyridin-2-yl)-N-(4-(3,3-dimethylureido)benzyl)-1-isopropyl-6-methyl-4,5,6,7-tetrahydro-1H-pyrazolo[4,3-c]pyridine-3-carboxamide] gave an IC50 in assay [1] (Homo sapiens, 48 h) of 0.211 µM. In addition, the EC50 on STAT6 amounted to 0.02 µM.
Regarding `C[C@H]1CN(c2ncc(C(=O)N(C)C)cn2)Cc2c(C(=O)NCc3ccc(NC(=O)N(C)C)cc3)nn(CC3CC3)c21` [Example 120, (S)-1-(cyclopropylmethyl)-5-(5-(dimethylcarbamoyl)pyrimidin-2-yl)-N-(4-(3,3-dimethylureido)benzyl)-7-methyl-4,5,6,7-tetrahydro-1H-pyrazolo[4,3-c]pyridine-3-carboxamide], the IC50 in assay [1] (Homo sapiens, 48 h) turned out to be 0.004 µM. The EC50 on STAT6 was found to be 0.001 µM.
For `CCn1nc(C(=O)NCc2ccc(NC(=O)N(C)C)cc2)c2c1[C@@H](C)CN(c1ncc(C(=O)N(C)C)cn1)C2` [Example 125, (S)-5-(5-(Dimethylcarbamoyl)pyrimidin-2-yl)-N-(4-(3,3-dimethylureido)benzyl)-1-ethyl-7-methyl-4,5,6,7-tetrahydro-1H-pyrazolo[4,3-c]pyridine-3-carboxamide], in that order: 0.004 µM and 0.001 µM.
For `CCn1nc(C(=O)NCc2ccc(NC(=O)N(C)C)cc2)c2c1[C@@H](C)CN(c1ccc(C(=O)N(C)C)cn1)C2` [Example 126, (S)-5-(5-(Dimethylcarbamoyl)pyridin-2-yl)-N-(4-(3,3-dimethylureido)benzyl)-1-ethyl-7-methyl-4,5,6,7-tetrahydro-1H-pyrazolo[4,3-c]pyridine-3-carboxamide] the same measures were 0.005 µM and 0.001 µM.
For `CC(C)n1nc(C(=O)NCc2ccc(NC(=O)N(C)C)cc2)c2c1[C@@H](C)CN(c1ncc(C(=O)N(C)C)cn1)C2` [Example 127], in that order: 0.004 µM and 0.001 µM.
In assay [1] (Homo sapiens, 48 h), `CCn1nc(C(=O)NCc2ccc(NC(=O)N(C)C)cc2)c2c1[C@@H](C)CN(c1ccc(N3CCCC3=O)cn1)C2` [Example 129, (S)-N-(4-(3,3-dimethylureido)benzyl)-1-ethyl-7-methyl-5-(5-(2-oxopyrrolidin-1-yl)pyridin-2-yl)-4,5,6,7-tetrahydro-1H-pyrazolo[4,3-c]pyridine-3-carboxamide] had an IC50 of 0.009 µM. Besides, at STAT6, the EC50 came to 0.001 µM.
For `CC(C)n1nc(C(=O)NCc2ccc(NC(=O)N3CCN(C)CC3)cc2)c2c1[C@@H](C)CN(c1ccc(C(=O)N(C)C)cc1)C2` [Example 132, (S)-5-(4-(Dimethylcarbamoyl)phenyl)-1-isopropyl-7-methyl-N-(4-(4-methylpiperazine-1-carboxamido)benzyl)-4,5,6,7-tetrahydro-1H-pyrazolo[4,3-c]pyridine-3-carboxamide], in that order: 0.0036 µM and 0.0002 µM.
For `CC(C)n1nc(C(=O)NCc2ccc(NC(N)=O)cc2)c2c1CCN(c1ccc(C(=O)N(C)C)cn1)C2` [Example 133, 5-(5-(dimethylcarbamoyl)pyridin-2-yl)-1-isopropyl-N-(4-ureidobenzyl)-4,5,6,7-tetrahydro-1H-pyrazolo[4,3-c]pyridine-3-carboxamide] the same measures were 0.048 µM and 0.028 µM.
For `CNC(=O)Nc1ccc(CNC(=O)c2nn(C(C)C)c3c2CN(c2ccc(C(=O)N(C)C)cn2)CC3)cc1` [Example 134, 5-(5-(dimethylcarbamoyl)pyridin-2-yl)-1-isopropyl-N-(4-(3-methylureido)benzyl)-4,5,6,7-tetrahydro-1H-pyrazolo[4,3-c]pyridine-3-carboxamide] the same measures were 0.046 µM and 0.007 µM.
In assay [1] (Homo sapiens, 48 h), `CNC(=O)c1ccc(N2CCc3c(c(C(=O)NCc4ccc(NC(=O)N(C)C)cc4)nn3C(C)C)C2)nc1` [Example 135, N-(4-(3,3-dimethylureido)benzyl)-1-isopropyl-5-(5-(methylcarbamoyl)pyridin-2-yl)-4,5,6,7-tetrahydro-1H-pyrazolo[4,3-c]pyridine-3-carboxamide] had a half-maximal inhibitory concentration (IC50) of 1.27 µM. For the same compound, the EC50 on STAT6 was 0.136 µM.
The compound `CC(C)n1nc(C(=O)NCc2ccc(NC(=O)N3CCCC3)cc2)c2c1CCN(c1ccc(C(=O)N(C)C)cn1)C2` [Example 136, 5-(5-(Dimethylcarbamoyl)pyridin-2-yl)-1-isopropyl-N-(4-(pyrrolidine-1-carboxamido)benzyl)-4,5,6,7-tetrahydro-1H-pyrazolo[4,3-c]pyridine-3-carboxamide] came in with an IC50 in assay [1] of 0.196 µM. Moreover, the EC50 at STAT6 was found to be 0.012 µM.
Compound `CC(C)n1nc(C(=O)NCc2ccc(NC(=O)N(C)C)cc2)c2c1CCN(c1ccc(C(N)=O)cn1)C2` [Example 137, 5-(5-carbamoylpyridin-2-yl)-N-(4-(3,3-dimethylureido)benzyl)-1-isopropyl-4,5,6,7-tetrahydro-1H-pyrazolo[4,3-c]pyridine-3-carboxamide] showed an IC50 in assay [1] (Homo sapiens, 48 h) of 9.69 µM. Besides, the EC50 at STAT6 is 1.86 µM.
